Measured values published in patent US11976311B2, “Method of adjusting the pH of a pretreatment solution using carbon dioxide useful for integrating saccharification and fermentation of a biomass” (National Technology & Engineering Solutions of Sandia, LLC, priority 2014, dated 2024).
Blank lines part the entries; values can stand above or below the compound they belong to.

Experiments:
[1] = test system: commercial enzyme mixtures (CTec2+HTec2); experiment: Effect of acid-induced pH adjustment of 5% [Ch][Lys] solution on enzymatic hydrolysis of MCC; type: biochemical; details: for relative activities of enzymes on MCC: 5% [Ch][Lys] solution, pH adjusted with the named acid
Experimental: To enable a one-pot process, the pH mis-match must be adjusted to lower the pH of pretreatment slurry to a range suitable to enzymes and microbes. We tested a series of mineral and organic acids such as hydrochloric acid, phosphoric acid, sulfuric acid, acetic acid, citric acid, lactic acid, formic acid for the pH adjustment of 5% [Ch][Lys] solution.
(§1) In another set of pretreatment, switchgrass (100 mg, dry weight) was mixed with 5, 10, and 20% [Ch][Lys]-water solutions at a 10% biomass loading in a 15 ml capped glass pressure tube and pretreated at 140° C. for 1 h. After pretreatment, CTec2+HTec2 (9:1 v/v) mixture was directly added to the pretreatment slurry at 10 mg EP per g starting biomass for saccharification at the same conditions as stated above. In addition, microcrystalline cellulose (MCC) was hydrolyzed by 30 mg/g starting biomass for CTec2+HTec2, spiked with 0-30% IL.

[2] = pH of [Ch][Lys]/water systems and CO2-based pH adjustment; type: physicochemical
From the text: With the increasing of CO2 pressure from 0 to 0.1 MPa, pH values of all [Ch][Lys]-water solutions decrease sharply from pH of […] to pH of 7-9. Further increasing CO2 pressure led to further pH drop. For 20 wt % [Ch][Lys]-water solution, a pH value of 7.2 was obtained at a CO2 pressure of around 2 MPa. However, only 0.7 MPa CO2 pressure is needed to drop the pH of 10 wt % [Ch][Lys]-water solution to 7.1. While, only 0.1 MPa CO2 pressure is needed to low the pH of the 5 wt % [Ch][Lys]-water solution to around 6.9, similar to or lower than the typical pressure deployed for carbonating a can of Soda. The process is reversible by increasing temperature or bubbling N2, driving out the CO2 and restoring the pH to its original value. In addition, a small fraction of alcohol (e.g. ethylene glycol) could be introduced for further enhancing CO2 absorption efficiency if necessary.^20
All the CO2 absorption experiments were carried out at room temperature in a 25 mL stainless steel Parr reactor (Parr instrument Co., USA) equipped with a magnetic stirrer plate and CO2 cylinder (>99.9% CO2 purity). In a typical procedure, 10 mL a certain concentration of [Ch][Lys] aqueous system was added into the Parr. After being sealed, the Parr was stirred at room temperature, and the absorption pressure was held constant by a backpressure valve. After the absorption was completed, the Parr was cooled to ambient temperature, and the remaining CO2 was removed slowly. Then, the corresponding pH value of the mixture was analyzed by Orion™ 3-Star Benchtop pH Meter. To elucidate the interaction between CO2 with side amine and terminal amine groups of [Ch][Lys] in H2O, we conducted ^13C nuclear magnetic resonance (NMR) analysis of [Ch][Lys] before and after CO2 absorption. Furthermore, two-dimensional (2D) […] heteronuclear single quantum coherence (HSQC) and heteronuclear multiple bond correlation (HMBC) nuclear magnetic resonance (NMR) analysis were also carried out on [Ch][Lys] before and after CO2 absorption.

[3] = test system: Saccharomyces cerevisiae strain BY4741; experiment: Toxicity screen of ionic liquids on Saccharomyces cerevisiae strain BY4741; type: cell-based; details: 200 mM IL, SC medium containing 0.2% glucose, pH adjusted to 7 with hydrochloric acid if necessary
Experimental: Both choline, the cation precursor and lysine, the anion precursor are essential nutrients for microbial growth, which are known to be non-toxic and biodegradable. In this study, we carried out toxicity screen of 15 typical ILs including [Ch][Lys], [Ch][OAc] and imidazolium based ILs, [[…]][OAc] on Saccharomyces cerevisiae strain BY4741 at different IL concentrations of 25 and 200 mM (FIG. 2A-2B) in SC medium containing 0.2% glucose with the pH of the IL solution adjusted to 7 using hydrochloric acid if necessary. It aims to test whether the IL, [Ch][Lys] is compatible to commercial enzymes and biofuel producing microbes. As shown in FIG. 2A-2D, the microbial growth was completely jeopardized in a concentration of 200 mM ( 4.3 wt %) for most of the ILs.

[4] = test system: CTec2+HTec2 (9:1, v/v) commercial enzyme mixtures; experiment: Compatibility of ILs with commercial enzyme mixtures (enzymatic hydrolysis of microcrystalline cellulose); type: biochemical; details: pH adjusted to 4.5 with hydrochloric acid
Experimental: as §1

Compound: O=S(=O)(O)O [sulfuric acid]
- relative activities of enzymes on MCC [1]: outperforms the other acids

- relative activities of enzymes on MCC [1]: outperforms the other acids
Compound: O=C(O)CC(O)(CC(=O)O)C(=O)O [citric acid]

- enzyme activity ([1]; 5% [Ch][Lys] solution without pH adjustment): very low
- pH ([2]; 5 wt % [Ch][Lys]-water, 0.1 MPa CO2 pressure): around 6.9
- pH ([2]; 10 wt % [Ch][Lys]-water, 0.7 MPa CO2 pressure): 7.1
- pH ([2]; 20 wt % [Ch][Lys]-water, CO2 pressure around 2 MPa): 7.2
- pH ([2]; [Ch][Lys] or aqueous [Ch][Lys] solution during and after pretreatment): 12-14
- pH ([2]; all [Ch][Lys]-water solutions (5, 10, 20 wt %), CO2 pressure 0.1 MPa, room temperature): 7-9
- relative activity of enzymes (sugar yield from hydrolysis of microcrystalline cellulose) vs no-IL control ([4]; 5% IL): ~70%
- relative activity of enzymes (sugar yield from hydrolysis of microcrystalline cellulose) vs no-IL control ([4]; 10% IL): ~50%
Compound: C[N+](C)(C)CCO.NCCCC[C@H](N)C(=O)[O-] [[Ch][Lys], cholinium lysinate]
- microbial growth [3]: no retard of microbial growth

Compound: Cl [hydrochloric acid]
- relative activities of enzymes on MCC [1]: outperforms the other acids
